Experiments:
[1] = tested on: BMSCs; test: Transwell migration (chemotaxis) assay; format: cell-based, mice
Experimental: The migratory ability of BMSCs was determined using Transwell plates (Corning Costar, 6.5 mm in diameter with 8 μm pore filters). In brief, 5×10^4 cells in 100 μL, serum-free medium were added into the upper well, and 600 μL, of CXCL12-containing medium was placed in the lower well of a Transwell plate. Following incubation for 5 h (37° C., 100% humidity, 5% CO2 in air), the number of cells that had migrated to the lower side of the filter was counted under a light microscope at ×200 magnification, and the data were presented as the average number of migratory in five randomly-selected fields. Each experiment was performed in triplicate, and the data were averaged for statistical analysis.

[2] = tested on: lamina IIo neurons of spinal cord slices; test: Patch-clamp recordings of sEPSCs in spinal cord slices; format: cell-based, mice
Experimental: A portion of the lumbar spinal cord (L4-L5) was removed from mice (4-7 weeks old) under urethane anesthesia (1.5-2.0 g/kg, i.p.) and kept in pre-oxygenated ice-cold Krebs solution (Xu, et al. Ann. Neurol. 2013, 74, 490-495). Transverse slices (400-600 μm) were cut on a vibrating microslicer. The slices were perfused with Kreb's solution (8-10 mL/min) that was saturated with 95% O2 and 5% CO2 at 36° C. for at least 1-3 h prior to experiment. The Kreb's solution contained (in mM): NaCl 117, KCl 3.6, CaCl2 2.5, MgCl2 1.2, NaH2PO4 1.2, NaHCO3 25, and […]. The whole-cell patch-clamp recordings were made from lamina IIo neurons in voltage-clamp mode. Patch pipettes were fabricated from thin-walled, borosilicate, glass-capillary tubing (1.5 mm outer diameter; World Precision Instruments). After establishing the whole-cell configuration, neurons were held their holding potentials at −70 mV for recording sEPSCs. The resistance of a typical patch pipette is 5-10 M. The internal solution contained the following (in mM): 135 potassium gluconate, 5 KCl, 0.5 CaCl2, 2 MgCl2, 5 EGTA, 5 HEPES, and 5 ATP-Mg. Membrane currents were amplified with an Axopatch 200 A amplifier (Molecular Devices) in voltage-clamp mode. Signals were filtered at 2 kHz and digitized at 5 kHz. Data were stored with a personal computer using pClamp 6 software and analyzed with Mini Analysis (Synaptosoft).

[3] = tested on: small-sized DRG neurons; test: Whole-cell patch clamp recordings of action potentials in whole mount DRG; format: cell-based, mice
Experimental: The L4-L5 whole mount DRGs were carefully removed from the vertebral column and placed in cold oxygenated ACSF as detailed in Lee et al. (Cell 2014, 157, 1393-1404). The connective tissue was gently removed under a microscope and the ganglia were digested with a mixture of 1.0 mg/mL protease and 1.6 mg/mL collagenase (Sigma) for 30 min at 37° C. The ganglion was transferred into a holding chamber containing normal Mg2+-free ACSF with CNQX (2 μM) bubbled with 95% O2 and 5% CO2 at room temperature. Whole-cell current clamp recordings were performed at room temperature (28° C.) to measure action potentials with Axopatch-200B amplifier (Axon Instruments). The patch pipettes were pulled from borosilicate capillaries (Chase Scientific Glass Inc.). When filled with the pipette solution, the resistance of the pipettes was 4-5 MΩ. The recording chamber (300 μL) was continuously superfused (3-4 mL/min). Series resistance was compensated for (>80%), and leak subtraction was performed. Data were low-pass-filtered at 2 KHz, sampled at 10 KHz. The pClamp10 (Axon Instruments) software was used during experiments and analysis.

[4] = tested on: CCI mice; test: CCI neuropathic pain model: mechanical allodynia (von Frey) and thermal hyperalgesia (Hargreaves); format: in vivo
From the text: Adult CD1 mice (male, 25-32 g) were purchased from Charles River Laboratories and used for behavioral studies and primary cultures of BMSCs. Neuropathic pain was produced by chronic constriction injury of the sciatic nerve (CCI) (Bennett, et al. J. Neurosci. 1998, 18, 3059-3072) and spared nerve injury (SNI) (Decosterd, et al. Pain 2000, 87, 149-158). For producing the CCI model animals were anesthetized with isoflurane, the left sciatic nerve was exposed, and three ligatures (7-0 prolene) were placed around the nerve proximal to the trifurcation with one millimeter between each ligature. The ligatures were loosely tied until a short flick of the ipsilateral hind limb was observed. Animals in the sham group received surgery identical to those described but without nerve ligation. Under isoflurane anesthesia, the SNI surgery was also performed with a 5.0 silk tight ligation of the tibial and common peroneal nerves followed by transection and removal of a 3-5 mm nerve portion. However, the third peripheral branch of the sciatic nerve, the sural nerve, remained intact, and any contact or stretch to this nerve was carefully avoided. All the animal procedures performed in this study were approved by the Animal Care Committee of Duke University Medical Center. TGF-β1, […] neutralizing antibody, TNF and CXCL12/SDF-1α were purchased from R&D, LPS from Sigma. AMD3100 (CXCR4 antagonist) and SB431542 (TGF-β1R inhibitor) were purchased from Selleckchem. IL-10 neutralizing antibody was purchased from Biolegend, and normal Rabbit IgG were purchased from Santa Cruz. For intrathecal injection, spinal cord puncture was made with a 30-G needle between the L5 and L6 level to deliver reagents (10 μL) or cells (1 or 2.5×10^5 cells in 10 μL PBS) to the cerebral spinal fluid (Hylden, et al. Eur. J. Pharmacol. 1980, 67, 313-316). […] Cells were then washed three times with PBS and resuspended. Animals were habituated to the testing environment daily for at least 2 days before baseline testing. The room temperature and humidity remained stable for all experiments. All the behaviors were tested blindly. For testing mechanical sensitivity, mice were confined in boxes placed on an elevated metal mesh floor and their hindpaws were stimulated with a series of von Frey hairs with logarithmically increasing stiffness (0.02-2.56 g, Stoelting), presented perpendicularly to the central plantar surface. The 50% paw withdrawal threshold was determined by Dixon's up-down method. Mechanical allodynia after SNI was also assessed by frequency response (expressed as percentage response) to a low-threshold von Frey hair (0.16 g, 10 times). […] The falling latency was recorded and averaged.

[5] = tested on: CCI mice; test: Two-chamber conditioned place preference test for ongoing pain after CCI; format: in vivo; conditions: clonidine 10 μg i.t.
From the text: To test spontaneous/ongoing pain measurement, a single trial conditioning protocol for conditioned place preference (CPP) was used as described in King et al. (Nat. Neurosci. 2009, 12, 1364-1366) and Xu et al. (Ann. Neurol. 2013, 74, 490-495). All mice underwent a 3-day pre-conditioning habituation and animal behavior was video-recorded. […] On the conditioning day, mice received the vehicle (saline) control paired with a randomly chosen chamber in the morning, and then the appropriate treatment (clonidine, 10 μg, i.t.) paired with the other chamber 4 h later. Chamber pairings were counterbalanced. On the test day, 20 h following the afternoon pairing, mice were placed in the CPP box with access to both chambers and the behavior was recorded for 15 min and analyzed by ANY-maze software for chamber preference.

[6] = tested on: PAX-induced mechanical allodynia in mice; test: Paclitaxel (PAX)-induced neuropathic pain model: paw withdrawal frequency to von Frey hair (0.4 g); format: in vivo; conditions: i.t. TGF-β1 100 ng, 7 weeks after first paclitaxel injection
Experimental: PAX-induced neuropathic pain (mechanical allodynia) was evaluated by paw withdrawal frequency to von Frey hair (0.4 g) stimuli (10×). Intrathecal BMSCs (2.5×10^5) produced a rapid (1 week) and long lasting (7 weeks) reduction in PAX-induced mechanical allodynia (FIG. 19B).
The analgesic efficacy of TGF-β1 was also tested in a PAX-induced neuropathic pain model. […] PAX-induced neuropathic pain was evaluated by paw withdrawal frequency to von Frey hair (0.4 g) stimuli (10×). Intrathecal TGF-β1 transiently reversed PAX-induced mechanical allodynia for 3 hours following injection (FIG. 20).

[7] = tested on: IL-10; test: ELISA of IL-10 release in BMSCs culture medium; format: cell-based, mice; conditions: TNF 10 ng/mL, 60 min, LPS 100 ng/mL
Experimental: (§1) Primary cultures of BMSCs were obtained from CD-1 donor mice under aseptic conditions. The mice were sacrificed with isoflurane and the both ends of the tibiae and femurs were cut off by scissors. A syringe fitted with 20-gauge needle was inserted into the shaft of the bone, and bone marrow was flushed out with culture medium (modified Eagle's medium containing 10% fetal bovine serum, 2 mM L-glutamine, 100 U/mL penicillin and 100 μg/mL streptomycin, 250 μg/mL Fungizone, all obtained from Gibco). After the centrifuge at 1000 g for 5 min at room temperature, the pellet was resuspended in 2 mL fresh warm culture medium and mechanically dissociated, and the suspension was passed through a 40-μm cell strainer to remove debris. After the centrifuge the cells were resuspended at a concentration of 1×10^6 cells/mL. The cells were then incubated at 37° C. in 5% CO2 in 75 cm2 cell culture flasks or 6-well culture plates. After 24 hours, cells were washed gently with PBS and replaced with fresh culture media. Adherent cells were further cultured with a medium change every 2-3 days until confluence was reached (also see FIG. 11).
Mouse TGF-β1, IL-10, and CXCL12/SDF-1α ELISA kits were purchased from R&D Systems. ELISA was performed using BMSCs culture medium or cell lysate, CSF, and DRG tissue. Cultured cells and DRGs were homogenized in a lysis buffer containing protease and phosphatase inhibitors. […]

[8] = tested on: TGF-β1; test: ELISA of TGF-β1 release and expression in BMSCs cultures; format: cell-based, mice; conditions: TNF 10 ng/mL, 60 min, LPS 100 ng/mL
Experimental: Tgfβ1 siRNA (Catalog: J-040652-06), Cxcr4 siRNA (Catalog: J-060184-06) and Non-targeting siRNA (Catalog: D-0018100-01-20) were purchased from Thermo Scientific Dharmacon. SiRNA was dissolved in RNase-free water at 1 μg/μL as stock solution and mixed with transfection reagent polyethyleneimine (PEI, Fermentas) and normal saline before use. Specifically, 1 μg siRNA was dissolved in 3.3 μL of PEI and 66 μL of normal saline (Kawasaki, et al. Nat. Med. 2008, 14, 331-336).
as §1, with “After 24 hours, cells were washed gently with PBS and replaced with fresh culture media. Adherent cells were further cultured with a medium change every 2-3 days until confluence was reached (also see FIG. 11).” left out

Molecule: c1cc(CN2CCCNCCNCCCNCC2)ccc1CN1CCCNCCNCCCNCC1 [AMD3100]
- CXCL12-induced migration of BMSCs ([1]; AMD3100 5 mg/L 30 min): blocked

Molecule: NC(=O)c1ccc(-c2nc(-c3ccc4c(c3)OCO4)c(-c3ccccn3)[nH]2)cc1 [SB431542, reference compound]
- effect on the TGF-β1 (10 ng/mL) blockade of sEPSC increases ([2]; SB431542 10 μM): abrogated
- effect on the TGF-β1 suppression of spike frequency ([3]; SB431542 10 μM): reversed
- effect on the anti-allodynic and anti-hyperalgesic effects of TGF-β1 (10 ng) ([4]; SB431542 100 pmol i.t., CCI mice): eliminated

Molecule: Clc1cccc(Cl)c1N=C1NCCN1 [clonidine]
- time in chamber paired with drug versus chamber paired with vehicle (CPP) [5]: spent more time

Molecule: CXCL12: chemokine, ligand of CXCR4, purchased from R&D
- migration of BMSCs in vitro ([1]; CXCL12 0-100 ng/ml): induced migration

Molecule: TGF-β1: exogenous recombinant TGF-β1 purchased from R&D, given intrathecally or superfused
- duration of reversal of PAX-induced mechanical allodynia following injection [6]: 3 h
- sEPSC frequency and amplitude in sham mice ([2]; superfusion 10 ng/mL): no effects
- time to blockade of CCI-induced sEPSC increases ([2]; superfusion 2 or 10 ng/mL): 2 min
- CCI-induced increases in sEPSC frequency and amplitude ([2]; superfusion 2 or 10 ng/mL, slices from CCI mice (4 d)): blocked
- CCI-induced increase in spike frequency in small-sized DRG neurons ([3]; TGF-β1 2 or 10 ng/mL): dose-dependently suppressed
- time to suppression of the spike frequency increase ([3]; TGF-β1 2 or 10 ng/mL): 2 to 5 min
- late-phase neuropathic pain on post-CCI day 21 ([4]; i.t. TGF-β1): effectively inhibited
- mechanical allodynia and thermal hyperalgesia at 5 days after CCI ([4]; i.t. TGF-β1 2 ng and 10 ng): dose-dependently inhibited
- time after which the reversal of allodynia/hyperalgesia recovered ([4]; i.t. TGF-β1 2 and 10 ng, 5 days after CCI): 24 h

Molecule: TNF-α
- IL-10 release of BMSCs on exposure (increase) [7]: not
- TGF-β1 release of BMSCs on exposure [8]: significantly increased

— patent publication US11389483B2, “Methods for treating pain” (Duke University, priority 2015, dated 2022)
